Results on 1 molecule are retold here after PMC9299640, “Incorporation of β‐Alanine in Cu(II) ATCUN Peptide Complexes Increases ROS Levels, DNA Cleavage and Antiproliferative Activity” (Chemistry (Weinheim an Der Bergstrasse, Germany), 2021).

A short description of data set [1]: Detection of hydroxyl radicals (TPA) and hydrogen peroxide (PBSF) by fluorescence spectroscopy. The format is biochemical. The following applies: 40 μM complex or CuCl2, ascH− 1 mM, MOPS 50 mM pH 7.4, TPA 0.5 mM or PBSF 25 μM, up to 3.5 h, r.t. Here is the method: To similarly confirm increased DNA cleavage as a result of enhanced ROS formation when introducing β‐Ala2 in the ATCUN motif, the ^•OH and H2O2 production was monitored. To follow the evolution of these species, the oxidation of terephthalate (TPA → HO‐TPA) by ^•OH[40] and the perhydrolysis of pentafluorobenzenesulfonyl fluorescein (PBSF) into fluorescein by H2O2 [40] were analyzed by fluorescence spectroscopy. In Figure 5, the kinetics of ^•OH and H2O2 production by complexes 1 (Gly2), 3 (β‐Ala2), 4 (β‐Ala2; Lys1/4) and CuCl2 are depicted.
Figure 5 Kinetics of ^•OH (left) and H2O2 (right) production for 1, 3, 4 and CuCl2 (40 μM) in the presence of ascH^− (1 mM) in MOPS buffer (50 mM, pH 7.4) monitored by fluorescence evolution of HO‐TPA (λ ex 320 nm, λ em=428 nm) from TPA (0.5 mM), and fluorescein (λ ex=485 nm, λ em=513 nm) from PBSF (25 μM).
S-8 Detection of hydroxyl radicals and hydrogen peroxide
For the identification of generated ROS by Cu(II) ATCUN complexes during DNA cleavage, gel electrophoresis was used for a ROS quenching experiment (Figure 4). Detection of hydroxyl radicals and hydrogen peroxide generated by metallonucleases was additionally performed by fluorescence spectroscopy.
The fluorescent dyes disodium terephthalate (TPA) and pentafluorobenzenesulfonyl fluorescein (PBSF) were used for the detection of hydroxyl radicals and hydrogen peroxide, respectively. […]

For another data set, the system named is HCT116 cells. Nature of the data set: Cellular uptake of Cu by ICP-MS. The format is cell-based, human. Particulars: 70 µM, 24 h, 37 °C, 5% CO2, 4 × 10^5 cells/well, HNO3 lysis, corrected for cell-free wells, n = 3. As for the experimental part:
We aimed to correlate the antiproliferative activity to the accumulation of Cu in HCT116 cells. Therefore, cells were treated for 24 h with complexes Cu−GGH, 1, 3, 4 and CuCl2 (70 μM), and the Cu content of the samples was determined by ICP‐MS (Table S13). […] The higher Cu contents probably lead to enhanced oxidative stress levels in cells, which consequently results in higher antiproliferative activity.
The antiproliferative activity of selected Cu(II) ATCUN complexes was investigated towards different tumor cell lines (HCT116, NCI-H460, SiHa and SW480 cells) and expressed as the IC50 values. Additionally, cellular uptake studies in HCT116 tumor cells were carried out and the amount of Cu was determined with inductively coupled plasma mass spectrometry (ICP-MS).
Table S13. […]
with 0.4% sulforhodamine B (Sigma-Aldrich) in 1% acetic acid for 30 min in the dark at room temperature and then washed with 1% acetic acid to remove unbound dye. The stain was dissolved in unbuffered Tris base (10 mM, Serva) for 30 min on a plate shaker in the dark and quantified on a BioTek EL808 microplate reader at an absorbance of 490 nm with a reference wavelength of 450 nm to determine the percentage of cell-growth inhibition by determining the absorbance of each sample relative to a negative (no inhibitor) and a no-growth control (day 0). […]

SMILES strings stand for the structures.

For `[Cl][Cu][Cl]` [CuCl2, reference compound], the “catalytic ROS generation (•OH and H2O2 production, in words)” value in data set [1] is “highest ^•OH and H2O2 formation”. For the same molecule, in the data set with HCT116 cells, the “accumulated Cu in HCT116” value is listed as 0.754 ± 0.010 μg/4 × 10^5 cells.
